The record followed here is patent US7772260B2, “Imidazo[2,1-b]-1,3,4-thiadiazole sulfonamides” (Aegera Therapeutics Inc., priority 2001, dated 2010).

pIC50: −log10 of the molar value. Where a name gives a salt, the structure may show the parent alone. Read-outs that look alike come from different tables or passages of the source.

The test system of test [1] is SCG neurons. Description: Protection of SCG neurons from anti-NGF killing. In kind it is cell-based, Sprague Dawley rats. Particulars: Rattus norvegicus, Neuron, anti-NGF antibody, serum and NGF free 48 hours, Alamar Blue, +/−1 uM, read-out: IC(50), rescue from anti-NGF killing of SCG neurons. Here is the method:
Neurotrophins are critical to the growth, development, and survival of small fiber neurons of the PNS. SCG neurons are neurons of the PNS that undergo apoptosis upon NGF withdrawal. In a typical experiment SCG neurons are cultured in the presence of NGF, which induces survival and neurite out-growth. After 5 days the NGF is removed by either the addition of anti-NGF polyclonal antibody (Sigma) or by repeated washings (4 times) with NGF free media, resulting in the apoptosis of up to 90% of the neurons after 48 hours, as measured by MTS staining.
After 4 days the cells were treated with anti-NGF antibody (Sigma). At this time compound was added and the cells were maintained serum and NGF free for 48 hours, at which time viability was assessed using Alamar Blue (Medicorp) staining.

In test [2] the test system is SCG neurons. Description: cells. It counts as cell-based, Sprague Dawley rats. Particulars: Rattus norvegicus, Neuron. Here is the method:
Taxol™ is regularly used in breast cancer chemotherapy. In cancer cells Taxol™ binds to the cyto-skeletal protein tubulin, thereby inhibiting normal microtubular assembly and inducing cellular apoptosis. Despite its potency as an anti-tumour agent, Taxol™ is also toxic to neurons, inducing dose limiting peripheral neuropathies. The addition of Taxol™ (100 ng/mL) to cultured SCG neurons induces the degradation or loss of upwards of 80% of the neurons.
FIG. 1 illustrates the protection provided by compound 1 (referred to here as AEG3482) against Taxol™ induced killing. PI Sprague Dawley rat SCG neurons were cultured and incubated with NGF (50 ng/mL) for 5 days.

Test [3] has as its target CA II (Homo sapiens, UniProt P00918). Put plainly: CA II inhibition. In kind it is biochemical. Here is the method: CA II inhabition was measured using the protocol described by Pocker, Y.'Stone, J. Biochemistry 1967, 6, 668.
Where [4] appears, read: Taxol™ (50 ng/mL), viability 48 hours later, MTS, read-out: IC(50), protection of SCG neurons from Taxol killing.
Where [5] appears, read: read-out: IC(50), CA II inhibition.

On to `NS(=O)(=O)c1nn2cc(-c3ccccc3F)nc2s1` [Compound 2, 6-(2-Fluorophenyl)imidazo[2,1-b]-1,3,4-thiadiazole-2-sulfonamide], for which, in test [1], the pIC50 was 4.70.

On to `NS(=O)(=O)c1nn2cc(-c3cccc(F)c3)nc2s1` [Compound 3, 6-(3-Fluorophenyl)imidazo[2,1-b]-1,3,4-thiadiazole-2-sulfonamide], for which the pIC50 in test [1] was 5.00.

Regarding `NS(=O)(=O)c1nn2cc(-c3c(F)c(F)c(N4CCOCC4)c(F)c3F)nc2s1` [Compound 9, 6-(4-Morpholino-2,3,5,6-tetrafluorophenyl)imidazo[2,1-b]-1,3,4-thiadiazole-2-sulfonamide], the pIC50 in test [1] was 5.10.

On to `NS(=O)(=O)c1nn2cc(-c3ccc4c(c3)OC3(CCCCC3)O4)nc2s1` [Compound 23, 6-(2-spiro(cyclohexyl)benzo-1,3-dioxol-5-yl)imidazo[2,1,-b]-1,3,4-thiadiazole-2-sulfonamide], for which, in test [1], the pIC50 is 4.60.

For the compound `NS(=O)(=O)c1nn2cc(-c3ccc(OC(F)(F)F)cc3)nc2s1` [Compound 25, 6-(4-trifloromethoxyphenyl)imidazo[2,1-b]-1,3,4-thiadiazole-2-sulfonamide], the results for the pIC50 in test [2] (setting [4]) and in test [3] (setting [5]) were 5.30 and 6.52, respectively.

Consider `COc1cc(-c2cn3nc(S(N)(=O)=O)sc3n2)ccc1OCCO` [Compound 34], for which, in test [1], the pIC50 was less than 4.52.

Take `COc1cc(-c2cn3nc(S(N)(=O)=O)sc3n2)ccc1OCCOCc1ccccc1` [Compound 35]: in test [1], the pIC50 is less than 4.52.

`COc1cc(-c2cn3nc(S(N)(=O)=O)sc3n2)ccc1OCCCOCc1ccccc1` [Compound 36]: the pIC50 in test [1] is 4.77.

For `NS(=O)(=O)c1nn2cc(-c3cccc([N+](=O)[O-])c3)nc2s1` [Compound 37, 6-(3-Nitrophenyl)imidazo[2,1-b]-1,3,4-thiadiazole-2-sulfonamide], the figures for the pIC50 in test [2] (setting [4]) and in test [3] (setting [5]) were 5.00 and 6.70, respectively.

For `NS(=O)(=O)c1nn2cc(-c3ccc(Cl)c([N+](=O)[O-])c3)nc2s1` [Compound 38, 6-(3-nitro-4-chlorophenyl)imidazo[2,1-b]-1,3,4-thiadiazole-2-sulfonamide], the pIC50 in test [2] (setting [4]) was 5.52; in test [3] (setting [5]), 6.24.

In the case of `N#Cc1cccc(-c2cn3nc(S(N)(=O)=O)sc3n2)c1` [Compound 41, 6-(3-cyanophenyl)imidazo[2,1-b]-1,3,4-thiadiazole-2-sulfonamide], the pIC50 was 5.52 in test [2] (setting [4]) and 6.46 in test [3] (setting [5]).

On to `N#Cc1ccc(-c2cn3nc(S(N)(=O)=O)sc3n2)cc1` [Compound 42, 6-(4-cyanophenyl)imidazo[2,1-b]-1,3,4-thiadiazole-2-sulfonamide], for which the pIC50 is 5.52 in test [2] (setting [4]) and 6.57 in test [3] (setting [5]).

Turning to `CCCCCc1ccc(-c2cn3nc(S(N)(=O)=O)sc3n2)cc1` [Compound 46, 6-(4-Pentylphenyl)imidazo[2,1-b]-1,3,4-thiadiazole-2-sulfonamide], the pIC50 was 5.15 in test [2] (setting [4]) and 6.22 in test [3] (setting [5]).

Regarding `Cc1ccc(-c2cn3nc(S(N)(=O)=O)sc3n2)cc1` [Compound 47, 6-(4-Methylphenyl)imidazo[2,1-b]-1,3,4-thiadiazole-2-sulfonamide], the figures for the pIC50 in test [2] (setting [4]) and in test [3] (setting [5]) were 5.22 and 6.44, respectively.

`Cc1ccc(-c2cn3nc(S(N)(=O)=O)sc3n2)c(C)c1` [Compound 48, 6-(2,4-dimethylphenyl)imidazo[2,1-b]-1,3,4-thiadiazole-2-sulfonamide]: the pIC50 in test [2] (setting [4]) is 5.30; in test [3] (setting [5]), 6.54.

As for `CC(C)(C)c1ccc(-c2cn3nc(S(N)(=O)=O)sc3n2)cc1` [Compound 49, 6-(4-tert-butylphenyl)imidazo[2,1-b]-1,3,4-thiadiazole-2-sulfonamide], the figures for the pIC50 in test [2] (setting [4]) and in test [3] (setting [5]) were 5.30 and 6.33, respectively.

As to `CC(C)(C)c1cc(-c2cn3nc(S(N)(=O)=O)sc3n2)c2c(c1)C(C)(C)CC2` [Compound 50], the values for the pIC50 in test [2] (setting [4]) and in test [3] (setting [5]) were 5.15 and 6.03, respectively.

Regarding `NS(=O)(=O)c1nn2cc(-c3ccc(-c4ccc5c(c4)OCO5)cc3)nc2s1` [Compound 79], the pIC50 in test [1] is 5.15.

`NS(=O)(=O)c1nn2cc(-c3ccc(-c4cccs4)cc3)nc2s1` [Compound 84, 6-(thiophen-2-yl-phenyl)imidazo[2,1-b]-1,3,4-thiadiazole-2-sulfonamide]: in test [1], the pIC50 was less than 4.52.

For `NS(=O)(=O)c1nn2cc(-c3ccc(-c4ccsc4)cc3)nc2s1` [Compound 85, 6-(thiophen-3-yl-phenyl)imidazo[2,1-b]-1,3,4-thiadiazole-2-sulfonamide], the pIC50 in test [1] was less than 4.52.

Regarding `COc1ccc(-c2cccc(-c3cn4nc(S(N)(=O)=O)sc4n3)c2)cc1` [Compound 86, 6-(4′methoxybiphen-3-yl)imidazo[2,1-b]-1,3,4-thiadiazole-2-sulfonamide], in test [1], the pIC50 is 4.77.

Take `NS(=O)(=O)c1nn2cc(-c3ccc(Oc4ccc(F)cc4)cc3)nc2s1` [Compound 88]: the pIC50 in test [1] was 5.00.

Regarding `NS(=O)(=O)c1nn2cc(-c3ccc(Oc4ccc(F)c(F)c4)cc3)nc2s1` [Compound 89, 6-(4-(3,4-difluorophenoxy)phenyl)imidazo[2,1-b]-1,3,4-thiadiazole-2-sulfonamide], the pIC50 in test [1] was 5.00.

Consider `NS(=O)(=O)c1nn2cc(-c3ccc(Oc4ccc(Cl)cc4)cc3)nc2s1` [Compound 91, 6-(4-chlorophenoxyphenyl)imidazo[2,1-b]-1,3,4-thiadiazole-2-sulfonamide], for which the pIC50 in test [1] was 5.15.

For `NS(=O)(=O)c1nn2cc(-c3ccc(Oc4ccc(Cl)c(Cl)c4)cc3)nc2s1` [Compound 92, 6-(3,4-dichlorophenoxyphenyl)imidazo[2,1-b]-1,3,4-thiadiazole-2-sulfonamide], in test [1], the pIC50 was 5.15.

As to `NS(=O)(=O)c1nn2cc(-c3ccc(Oc4ccccc4Br)cc3)nc2s1` [Compound 93, 6-(2-bromophenoxyphenyl)imidazo[2,1-b]-1,3,4-thiadiazole-2-sulfonamide], in test [1], the pIC50 is 5.15.

Regarding `NS(=O)(=O)c1nn2cc(-c3ccc(Oc4cccc(Br)c4)cc3)nc2s1` [Compound 94, 6-(3-bromophenoxyphenyl)imidazo[2,1-b]-1,3,4-thiadiazole-2-sulfonamide], the pIC50 in test [1] is 5.00.

Take `CN(C)c1cccc(Oc2ccc(-c3cn4nc(S(N)(=O)=O)sc4n3)cc2)c1` [Compound 96, 6-(3-dimethylaminophenoxyphenyl)imidazo[2,1-b]-1,3,4-thiadiazole-2-sulfonamide]: in test [1], the pIC50 was 4.70.

Take `CC(C)c1ccc(Oc2ccc(-c3cn4nc(S(N)(=O)=O)sc4n3)cc2)cc1` [Compound 97, 6-(4-(4-iso-propylphenoxy)phenyl)imidazo[2,1-b]-1,3,4-thiadiazole-2-sulfonamide]: the pIC50 in test [1] is 5.15.

Take `COc1ccc(Oc2ccc(-c3cn4nc(S(N)(=O)=O)sc4n3)cc2)cc1` [Compound 98, 6-(4-(4-methoxyphenoxy)phenyl)imidazo[2,1-b]-1,3,4-thiadiazole-2-sulfonamide]: the pIC50 in test [1] is 4.77.

`NS(=O)(=O)c1nn2cc(-c3ccccn3)nc2s1` [Compound 105, 6-(2-Pyridyl)imidazo[2,1-b]-1,3,4-thiadiazole-2-sulfonamide]: the figures for the pIC50 in test [2] (setting [4]) and in test [3] (setting [5]) were 5.15 and 6.82, respectively.

Regarding `NS(=O)(=O)c1nn2cc(-c3ccccn3)nc2s1` [Compound 106, 6-(2-Pyridyl)imidazo[2,1-b]-1,3,4-thiadiazole-2-sulfonamide HCl], the pIC50 in test [1] is 5.15.

For `CNS(=O)(=O)c1nn2cc(-c3ccccc3)nc2s1` [Compound 137, 6-Phenyl-imidazo[2,1-b]-1,3,4-thiadiazole-2-N-methylsulfonamide], the pIC50 in test [2] (setting [4]) was 5.00; in test [2] (read-out: IC(50) against Taxol killing of SCGs), 5.15; in test [3] (read-out: CAII(50) / CAII IC(50)) it was 5.69. Moreover, the “decrease in CAII activity relative to compound 1” value in test [3] (compound 137 versus compound 1) was 100 fold.

For `CN(C)S(=O)(=O)c1nn2cc(-c3ccccc3)nc2s1` [Compound 139, 6-Phenyl-imidazo[2,1-b]-1,3,4-thiadiazole-2-N,N-dimethylsulfonamide], the pIC50 in test [2] (setting [4]) is 5.00; in test [3] (setting [5]), 4.95.

As for `CCCCN(CCCC)S(=O)(=O)c1nn2cc(-c3cccc(OC)c3)nc2s1` [Compound 142, 6-(3-Methoxyphenyl)imidazo[2,1-b]-1,3,4-thiadiazole-2-N,N-dibutylsulfonamide], the pIC50 was less than 4.52 in test [2] (setting [4]) and 4.22 in test [3] (setting [5]).

Turning to `COc1cccc(-c2ccc(-c3cn4nc(S(N)(=O)=O)sc4n3)cc2)c1` [Compound 149, 6-(3′-methoxybiphen-4-yl)imidazo[2,1-b]-1,3,4-thiadiazole-2-sulfonamide sodium salt], the pIC50 in test [1] (48 h) was 5.15.
